Measurements from article PMC12042267, “Expanding the Family of Monosubstituted 15-Membered Pyridine-Based Macrocyclic Ligands for Mn(II) Complexation in the Context of MRI” (Inorganic Chemistry, 2025).

Columns and labels:
Assay type in all cases: physicochemical
[1] = Ligand protonation constants by pH-potentiometric titration; conditions: I = 0.15 M NaCl; 25 °C
Protocol: (§1) Metal stock solutions were prepared from the highest analytical grade chemicals, and their concentration was determined by complexometric titration with standardized Na2H2EDTA, using xylenol orange indicator in the presence of urotropine buffer (ZnCl2 and MnCl2); Eriochrome black T indicator in the presence of ammonium acetate buffer (CaCl2) or murexide indicator in ammonium solution (CuCl2). The concentration of the ligand stock solutions was determined by pH-potentiometric titrations (the difference between two consecutive inflection points of the ligand titration curve corresponds to two (L2) or one (L3) ligand equivalents). To determine the protonation constants of the ligand and stability constants of the metal complexes with selected divalent metal ions, pH-potentiometric titrations were carried out with 0.1 M NaOH at 2 mM ligand concentration, in the absence (for ligand protonation constants) or in the presence of one equivalent of metal ion (for stability constants). During the titration, the waiting time was 2 min between successive points (V0 = 5 mL). The temperature (25.0 ± 0.1 °C) was controlled by a circulating water bath. The ionic strength was set to I = 0.15 M NaCl. All titrations were performed under a nitrogen atmosphere to avoid the effect of CO2. Titrations were carried out in the pH range from 1.8 (L3) or 2.0 (L2) (after the addition of 1 M HCl solution to the starting ligand solution in the titration cell) to pH 11 (or until precipitation of the metal hydroxide). All pH-potentiometric titrations were performed using a 785 DMP Titrino titration workstation with a combined electrode (Metrohm). The p[H] (p[H] = −log[H+], concentration in molarity) was measured in each titration with a combined pH glass electrode (Metrohm) filled with 3 M KCl. The electrode was calibrated in hydrogen ion concentration by titration of HCl with KOH in 0.1 M electrolyte solution.[37] A plot of potential versus p[H] allows determination of the electrode standard potential (E°) and the slope factor (f).
The protonation constants of the ligand (log Ki^H) are defined as follows [drawing 1] where i = 1, 2, ··· and [Hi–1L] and [H^+] are the equilibrium concentrations of the ligand (i = 1), its protonated forms (i = 2, ···), and the hydrogen ion. The stability (KML) and the protonation (KMHiL) constants for the metal complexes are defined as follows [drawing 2] [drawing 3] For the calculations of the equilibrium constants, the HYPERQUAD program was used.[38] The number of fitted data pairs was between 190 and 240. The ionic product of water at 25 °C and 0.1 M ionic strength is pKw = 13.77.[39] Fixed values were used for pKw, ligand acidity constants, and total concentrations of metal, ligand, and acid. […]

[2] = Stability constants of Ca(II) complexes by pH-potentiometry; conditions: I = 0.15 M NaCl, 25 °C
Protocol: as §1
(§2) The protonation constants of the ligand (log Ki^H) are defined as follows [drawing 1] where i = 1, 2, ··· and [Hi–1L] and [H^+] are the equilibrium concentrations of the ligand (i = 1), its protonated forms (i = 2, ···), and the hydrogen ion. The stability (KML) and the protonation (KMHiL) constants for the metal complexes are defined as follows [drawing 2] [drawing 3] For the calculations of the equilibrium constants, the HYPERQUAD program was used.[38] The number of fitted data pairs was between 190 and 240. The ionic product of water at 25 °C and 0.1 M ionic strength is pKw = 13.77.[39] Fixed values were used for pKw, ligand acidity constants, and total concentrations of metal, ligand, and acid. All values and errors (one standard deviation) reported are at least the average of two independent experiments.

[3] = Stability constants of Mn(II) complexes by pH-potentiometry, pMn and species distribution; conditions: for log KML / log KML(OH): Mn(II), I = 0.15 M NaCl, 25 °C; for pMn: pMn = −log[Mn(II)]free at pH 7.4, cMn = clig = 10^–5 M
Protocol: as §1, §2
To obtain further information about the impact of a given pendant arm, it is interesting to calculate pMn values (pMn = −log[Mn(II)]free at pH 7.4, cMn = clig= 10^–5 M) which provide a more direct comparison of MnL stabilities, independently of differences in protonation constants (Table 4). […] Nevertheless, the too large, 15-membered macrocyclic cavity combined with a lower number of pendant arms provide ca. 2 orders of magnitude lower stability for Mn(II) complexation as compared to the 12-membered pyclen derivatives (Table 4).

[4] = Stability constants of Zn(II) complexes by pH-potentiometry; conditions: I = 0.15 M NaCl, 25 °C
Protocol: as §1, §2

[5] = Stability constants of Cu(II) complexes by pH-potentiometry; conditions: I = 0.15 M NaCl, 25 °C
Protocol: as §1, §2

[6] = Dissociation kinetics of Mn(II) complexes, transmetalation with Zn(II) (T2 relaxation); conditions: Zn(II) transmetalation, 25 °C, 0.15 M NaCl, pH 4.9–6.0
Protocol: The transmetalation reaction of MnL2 and MnL3 (1.4 mM) was monitored in the presence of 10, 20, 30, and 40 mol equiv of Zn(II) ions, by measuring water proton T2 relaxation times (60 MHz) as a function of time at 25 °C and in 0.15 M NaCl, in the pH range 4.9–6.0 (4.9, 5.0, 5.2, 5.5, and 6.0). To control pH, 50 mM N-methyl-piperazine (pH 4.9–5.5) or 50 mM MES (2-(4-morpholino)ethane-sulfonic acid) buffer (pH 5.7–6.0) was used. Transmetalation of MnL2 (0.3 mM) was also investigated in the presence of 10, 20, 30, and 40 mol equiv of Cu(II) ions, by monitoring the UV–vis absorbance at 274.0 nm as a function of time at 25 °C and in 0.15 M NaCl, in the pH range 4.7–5.0 (in 75 mM 1,4-dimethyl piperazine (DMP) buffer). No oxidation of the samples was observed. The program OriginPro 9 was used for the fitting of experimental data.
The dissociation kinetics was followed through monitoring Mn(II) release by water proton T2 measurements, at pH […], in the presence of 10- to 40-fold excess of Zn(II) and through UV–vis measurements in the presence of 10- to 40-fold excess of Cu(II) at pH 4.7–5.0 (only for MnL2). The observed dissociation rate constants, kobs, increase with increasing H^+ ion concentration (Figures 4, left and S20). They remain independent of Zn(II) concentration (Figures S18 and S19), but do show dependence on Cu(II) concentration (Figure S21).
In excess of the exchanging metal ion, the reaction is of pseudo-first order, and the rate is proportional to the total MnL2 or MnL3 concentration (eq 1), where kobs is the pseudo-first-order rate constant. [drawing 4] 1 In general, different dissociation pathways can coexist, implying the participation of protons and/or the exchanging metal ion,[47] as illustrated in Figure 5.
Based on this scheme, the overall rate for either Zn(II) or Cu(II) transmetalation can be given by eq 2, where M = Zn^2+ or Cu^2+ (for clarity, charges of the complexes are omitted). [drawing 5] 2 Here, the first and second terms correspond to the spontaneous dissociation of the nonprotonated and the monoprotonated complexes, respectively, the third term describes the proton-assisted dissociation of the monoprotonated complex, and the last two terms refer to the spontaneous dissociation of the dinuclear complex and metal-assisted dissociation of the monoprotonated MnL2 or MnL3 complex. [MnL]tot describes the total concentration of Mn(II) chelates ([MnL]tot = [MnL] + [MnHL] + [ZnLMn]). Since no obvious Zn(II) dependence (for any of the two systems) was observed, only the spontaneous and proton-assisted dissociation pathways were taken into consideration. Consequently, the observed rate constants can be expressed as in eq 3 with k0 = kMnL, k1 = kMnHL·KMnHL, and k2 = ^HkMnHL·KMnHL. [drawing 6] 3 The kobs rate constants were fitted to eq 3, and the calculated parameters are listed in Table 5 for the Zn(II) exchange. During the fitting procedure, KMnHL was fixed to the value obtained from the pH-potentiometric titrations.

| SMILES | log K2^H [1] | log K3^H [1] | log KH2ML [2] | log KHML [2] | log KML [2] | log KML [3] | log KML(OH) [3] | pMn [3] | log KHML [4] | log KML [4] | log KML(OH) [4] | log KML [5] | log KML(OH) [5] | k0 (spontaneous dissociation of the nonprotonated complex) [6] | k1 (spontaneous dissociation of the monoprotonated complex) [6] [M^–1 s^–1] | k2 (proton-assisted dissociation of the monoprotonated complex) [6] | log KML(OH) [2] | log KHML [5] |
| --- | --- | --- | --- | --- | --- | --- | --- | --- | --- | --- | --- | --- | --- | --- | --- | --- | --- | --- |
| c1ccc(CN2CCOCCOCCNCc3cccc(n3)C2)nc1 [L2] | 7.14(1) | 2.1(1) | 6.63(9) | 7.23(7) | 4.11(4) | 10.25(1) | -10.89(3) | 6.93 | 2.99(2) | 13.36(1) | -10.97(2) | 16.57(8) | -10.78(8) | (1.1 ± 0.3) × 10^–3 s^–1 | 737 ± 110 | (4.5 ± 0.8) × 10^7 M^–2 s^–1 | – | – |
| c1cc2nc(c1)CN(Cc1nc3ccccc3[nH]1)CCOCCOCCNC2 [L3] | 5.85(1) | 1.98(1) | – | 6.72(6) | 3.53(1) | 9.74(1) | -9.78(1) | 6.80 | 2.09(6) | 12.09(1) | -9.33(2) | 16.91(2) | -7.9(1) | (1.9 ± 0.3) × 10^–3 s^–1 | 912 ± 41 | – | -10.93(1) | 2.1(4) |
